According to patent publication US20040224884A1, “Methods of screening for apoptosis-controlling agents for bone anabolic therapies and uses thereof” (priority 1998, published 2004):

Legend:
[1] = test system: osteoblastic cells derived from murine calvaria; assay: Etoposide-induced apoptosis of osteoblastic cells, trypan blue uptake; type: cell-based; conditions: for Suppression by 10^−8 M Flutamide: suppression of the anti-apoptotic effect by androgen receptor antagonist; for Lowest Effective Concentration: inhibition of etoposide-induced osteoblast apoptosis, 1 hour pretreatment; for anti-apoptotic effect on osteoblastic cells after pretreatment with ICI182,780: test agent 10^−8 M, ICI182,780 10^−7 M, 1 h pretreatment
Method: Osteoblastic cells derived from murine calvaria were pretreated with the sterols for 1 hour before the addition of the pro-apoptotic agent, etoposide. Apoptosis was determined after 6 hours by trypan blue uptake (Jilka et al, J. Bone and Min. Res. 13:793:802, 1998). * indicates p<0.05 versus etoposide alone, by analysis of variance (ANOVA) (Student-Newman-Keuls method).
Osteoblastic cells derived from murine calvaria were pretreated for 1 hour with the pure receptor antagonist ICI182,780 (10^−7 M) before the addition of the test agents (10^−8 M). Apoptosis was induced and quantified as described in FIG. 3. * indicates p<0.05 versus etoposide alone, by ANOVA (Student-Newman-Keuls method).
In this experiment, osteoblastic cells were derived from murine calvaria and were pretreated with the sterols for 1 hour before the addition of the pro-apoptotic agent, etoposide.
In these experiments, cells were pretreated with the indicated concentrations of the various compounds for 1 hour, in the absence or presence of the androgen receptor antagonist flutamide, before the addition of the proapoptotic agent etoposide. Apoptosis was determined after 6 hours by trypan blue uptake as described in FIG. 3.

MLO-Y4 osteocytic cells [2] = assay: Etoposide-induced apoptosis of MLO-Y4 osteocytic cells, trypan blue uptake; type: cell-based, murine; conditions: for antiapoptotic effect on osteocytes after pretreatment with ICI182,780: ICI182,780 10^−7 M, 1 h pretreatment; for inhibition of etoposide-induced apoptosis of osteocytic cell line: MLO-Y4, pretreated 1 h before etoposide, apoptosis after 6 h
Method: Cells were pretreated with the indicated concentrations of the compounds for 1 hour before the addition of the pro-apoptotic agent etoposide. Apoptosis was determined after 6 hour by trypan blue uptake as described in FIG. 3. * indicates p<0.05 versus etoposide alone, by ANOVA (Student-Newman-Keuls method).
MLO-Y4 cells were pretreated for 1 hour with the pure receptor antagonist ICI182,780 (10^−7 M) before the addition of the test agents (10^−8 M). Apoptosis was induced and quantified as described in FIG. 3. * indicates p<0.05 versus etoposide alone, by ANOVA (Student-Newman-Keuls method).
In this experiment, MLO-Y4 cells were pretreated with the indicated concentrations of the various compounds for 1 h before the addition of the pro-apoptotic agent, etoposide. Apoptosis was determined after 6 h by trypan blue uptake as described in FIG. 3.

[3] = target: T1, murine estrogen receptor-beta (mERβ) (Mus musculus, UniProt O08537); assay: Etoposide-induced apoptosis in HeLa cells stably transfected with mERβ; type: cell-based, human; conditions: 10^−8 M, 1 h; etoposide 5×10^−5 M, 6 hour
T1 construct: expressed in transfected cells
From the text: (§1) CMV promoter alone and CMV promoter-driven cDNA for mERα or mErβ were stably transfected into HeLa cells. […] Cells were trypsinized, pelleted and trypan blue positive cells enumerated.
(§2) In this experiment, instead of calvaria cells, human HeLa cells which contain undetectable, if any, estrogen receptor were used. HeLa cells were stably transfected with either a CMV promoter-driven cDNA for the murine estrogen receptor-alpha (mERα) or a CMV promoter-driven cDNA for the murine estrogen receptor-beta (mERβ). […] Cells were trypsinized, pelleted and trypan blue positive cells were enumerated.

MLO-Y4 osteocytic cells [4] = assay: Dexamethasone-induced apoptosis of MLO-Y4 cells with PD98059; type: cell-based, murine; conditions: 10^−8 M; PD98059 1 hour pretreatment; dexamethasone 6 hours
Method: Apoptosis was induced by incubation with the pro-apoptotic agent dexamethasone for 6 hour and quantified as described in FIG. 3. * indicates p<0.05 versus the corresponding control group without dexamethasone, by ANOVA (Student-Newman-Keuls method).
That indeed the anti-apoptotic effect of all the compounds tested herein was mediated via activation of ERKs was established by the results of the experiments shown in FIG. 10. […] Apoptosis was induced by incubation with the pro-apoptotic agent dexamethasone for 6 hours and quantified as described in FIG. 3.

wild type HeLa cells = assay: Etoposide-induced apoptosis in wild type HeLa cells; type: cell-based, human; conditions: 10^−8 M, 1 h; etoposide 5×10^−5 M, 6 hour
From the text: as §1, §2

[5] = test system: extracellular signal regulated kinases (ERKs) 1 and 2; assay: Western blot of phosphorylated ERK1/2 in MLO-Y4 cells; type: cell-based, murine; conditions: for activation (phosphorylation) of ERKs: 10^−8 M, 5, 15 or 30 minutes; for ability to activate ERKs in the presence of PD98059: 10^−8 M, 5 minutes, 50 μM PD98059
Method: (§3) MLO-Y4 osteocytic cells were incubated for 25 minutes in serum -free medium. […] Cell lysates were prepared and proteins were separated by electrophoresis in polyacrylamide gels and transferred to PVDF membranes. Western blotting was performed using a specific antibody recognizing phosphorylated ERKs 1 and 2, followed by reblotting with an antibody recognizing total ERKs. Blots were developed by enhanced chemiluminescence.
as §3, with “MLO-Y4” for “MLO-Y4 osteocytic”, “serum-free medium in the presence or absence of 50 μM PD98059.” for “serum -free medium.”
as §3, with “In this experiment, MLO-Y4” for “MLO-Y4”, “serum-free” for “serum -free”, “extracellular signal regulated kinases” for “ERKs”, “extracellular signal regulated kinases.” for “ERKs.”, “chemiluminescence. […] This effect is too rapid to be accounted for by the classical mechanism of estrogen action.” for “chemiluminescence.”
as §3, with “In this experiment, MLO-Y4” for “MLO-Y4”, “serum-free medium in the presence or absence of 50 μM PD98059.” for “serum -free medium.”, “extracellular signal regulated kinases” for “ERKs”, “extracellular signal regulated kinases.” for “ERKs.”

osteoclasts = conditions: increased from approximately 0.5%; cited from earlier work
[6] = rats, intravenously; cited from earlier work
[7] = after one year of treatment; cited from earlier work
[8] = for at least four years; cited from earlier work
osteoblasts = conditions: intermittent administration in mice; from 1.7-2.2%; cited from earlier work

T1 sequence (O08537 whole entry): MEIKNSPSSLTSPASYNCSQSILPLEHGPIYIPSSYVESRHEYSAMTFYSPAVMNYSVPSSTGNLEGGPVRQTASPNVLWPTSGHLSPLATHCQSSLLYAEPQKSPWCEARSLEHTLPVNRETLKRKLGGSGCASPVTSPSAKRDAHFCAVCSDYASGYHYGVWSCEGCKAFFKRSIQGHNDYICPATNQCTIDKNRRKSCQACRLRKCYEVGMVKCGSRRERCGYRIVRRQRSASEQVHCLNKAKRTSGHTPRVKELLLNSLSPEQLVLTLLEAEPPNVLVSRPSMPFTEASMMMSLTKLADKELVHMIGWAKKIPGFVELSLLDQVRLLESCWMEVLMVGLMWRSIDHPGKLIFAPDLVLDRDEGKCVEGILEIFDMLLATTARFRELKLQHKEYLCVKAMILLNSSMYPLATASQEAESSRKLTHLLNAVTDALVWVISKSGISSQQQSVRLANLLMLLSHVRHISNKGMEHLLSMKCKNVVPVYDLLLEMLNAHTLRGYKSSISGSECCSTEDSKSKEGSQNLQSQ

Molecule: C[C@]12CCC(=O)C=C1CC[C@@H]1[C@@H]2CC[C@]2(C)C(=O)CC[C@@H]12 [4-androstene-3,17-dione]
- Suppression by 10^−8 M Flutamide [1]: yes

Molecule: C[C@]12CC[C@H]3[C@@H](CC=C4C[C@@H](O)CC[C@@]43C)[C@@H]1CC[C@@H]2O [5-androstene-3β-17_-diol]
- Lowest Effective Concentration [1]: 10^−8 M
- Suppression by 10^−8 M Flutamide [1]: yes

Molecule: C[C@]12CCC(=O)C[C@@H]1CC[C@@H]1[C@@H]2CC[C@]2(C)[C@@H](O)CC[C@@H]12 [5-α-dihydrotestosterone]
- Lowest Effective Concentration [1]: 10^−9 M
- Suppression by 10^−8 M Flutamide [1]: yes

Molecule: C[C@]12CCC(=O)C[C@@H]1CC[C@@H]1[C@@H]2CC[C@]2(C)[C@@H](O)CC[C@@H]12 [5-β-dihydrotestosterone]
- Lowest Effective Concentration [1]: 10^−10 M
- Suppression by 10^−8 M Flutamide [1]: yes

Molecule: C[C@]12CC[C@@H]3c4ccc(O)cc4CC[C@H]3[C@@H]1CC[C@H]2O [17α-estradiol]
- antiapoptotic effect on osteocytes after pretreatment with ICI182,780 (MLO-Y4 osteocytic cells [2]): abrogated
- inhibition of etoposide-induced apoptosis of osteocytic cell line (MLO-Y4 osteocytic cells [2]): dose-dependently inhibited
- inhibition of etoposide-induced apoptosis in HeLa cells transfected with estrogen receptor β [3]: potently inhibited
- anti-apoptotic effect after pretreatment with PD98059 (MLO-Y4 osteocytic cells [4]): prevented the anti-apoptotic effect
- anti-apoptotic effect on osteoblastic cells after pretreatment with ICI182,780 [1]: abrogated
- effect on etoposide-induced apoptosis of wild type HeLa cells (wild type HeLa cells): none of the three compounds had any effect
- activation (phosphorylation) of ERKs [5]: activated
- ability to activate ERKs in the presence of PD98059 [5]: abrogated

Molecule: C[C@]12CC[C@@H]3c4ccc(O)cc4CC[C@H]3[C@@H]1CC[C@@H]2O [17β-estradiol]
- antiapoptotic effect on osteocytes after pretreatment with ICI182,780 (MLO-Y4 osteocytic cells [2]): abrogated
- inhibition of etoposide-induced apoptosis of osteocytic cell line (MLO-Y4 osteocytic cells [2]): dose-dependently inhibited
- inhibition of etoposide-induced apoptosis in HeLa cells transfected with estrogen receptor β [3]: potently inhibited
- anti-apoptotic effect after pretreatment with PD98059 (MLO-Y4 osteocytic cells [4]): prevented the anti-apoptotic effect
- inhibition of etoposide-induced osteoblastic cell apoptosis ([1]; pretreated 1 hour before etoposide, apoptosis after 6 hours by trypan blue uptake): prevented apoptosis
- anti-apoptotic effect on osteoblastic cells after pretreatment with ICI182,780 [1]: abrogated
- apoptosis of osteoclasts (osteoclasts): ≤ 2.7%
- effect on etoposide-induced apoptosis of wild type HeLa cells (wild type HeLa cells): none of the three compounds had any effect
- activation (phosphorylation) of ERKs [5]: activated
- ability to activate ERKs in the presence of PD98059 [5]: abrogated

Molecule: C[C@]12CC[C@H](OS(=O)(=O)O)CC1=CC[C@@H]1[C@@H]2CC[C@]2(C)C(=O)CC[C@@H]12 [Dehydroisoandrosterone-3-sulfate (DHES), Dehydroisoandrosterone-3-sulfate]
- Lowest Effective Concentration [1]: 10^−8 M
- Suppression by 10^−8 M Flutamide [1]: no*

Molecule: CC(=O)N[C@@H](CS)C(=O)O [N-acetylcysteine, acetamido-mercaptopropionic acid]
- LD50 [6]: 1140 mg/kg

Molecule: C[C@]1(O)CC[C@H]2[C@@H]3CCC4=CC(=O)CCC4=C3C=C[C@@]21C [RU1881]
- Lowest Effective Concentration [1]: 10^−8 M
- Suppression by 10^−8 M Flutamide [1]: yes

Molecule: C[C@]12CC[C@H]3[C@@H](CCC4=CC(=O)CC[C@@]43C)[C@@H]1CC[C@@H]2O [Testosterone]
- Suppression by 10^−8 M Flutamide [1]: yes

Molecule: CC(O)(P(=O)(O)O)P(=O)(O)O [etidronate]
- reduction of resorption depth in human iliac trabecular bone [7]: ~30%

Molecule: [F-].[Na+] [sodium fluoride]
- increase in vertebral bone mass [8]: 10 % a year

B1: PTH: parathyroid hormone, agent known for its role in calcium homeostasis (protein, UniProt P01270 32-115, looked up)
Parathyroid hormone: SVSEIQLMHNLGKHLNSMERVEWLRKKLQDVHNFVALGAPLAPRDAGSQRPRKKEDNVLVESHEKSLGEADKADVNVLTKAKSQ
modifications: Parathyroid hormone
notes: parathyroid hormone, agent known for its role in calcium homeostasis
- prevalence of osteoblast apoptosis (osteoblasts): 0.1-0.4%
